Results: article PMC12221116, “Novel Quinazolinones Active against Multidrug‐Resistant Mycobacterium Tuberculosis: Synthesis, Antimicrobial Evaluation, and in Silico Exploration of Penicillin‐Binding Protein 1A as a Potential Target” (Chemmedchem, 2025)
Values after ≈ are worked out from the molar mass of the structure shown. Like-named read-outs stand apart in the source and are kept apart here.

Tests used:
Mtb H37Ra = test: Microdilution broth resazurin assay, MIC; type: cell-based, Mycobacterium tuberculosis
M. aurum = test: Microdilution broth resazurin assay, MIC; type: cell-based, Mycolicibacterium aurum
M. smegmatis = test: Microdilution broth resazurin assay, MIC; type: cell-based, Mycolicibacterium smegmatis
Mtb H37Rv = test: Microplate Alamar Blue assay, MIC; type: cell-based, Mycobacterium tuberculosis; conditions: Mycobacterium tuberculosis, H37RV
M. kansasii = test: Microplate Alamar Blue assay, MIC; type: cell-based, Mycobacterium kansasii; conditions: for MIC: Mycobacterium kansasii, read-out: Antimycobacterial Activity MIC M. kans.
M. avium = test: Microdilution broth resazurin assay, MIC; type: cell-based, Mycobacterium avium
[1] = Mycobacterium tuberculosis, H37RA, read-out: Antimycobacterial Activity MIC Mtb H37Ra
[2] = Mycolicibacterium aurum, read-out: Antimycobacterial Activity MIC M. aurum
[3] = Mycolicibacterium smegmatis, read-out: Antimycobacterial Activity MIC M. smeg.
[4] = Microplate Alamar Blue assay, read-out: Antimycobacterial Activity MIC Mtb H37Rv
[5] = read-out: Antimycobacterial Activity MIC Mtb H37Rv, Table S5 matching pairs series A and B
[6] = Mycobacterium avium; read-out: Antimycobacterial Activity MIC M. avium
[7] = Table S5 matching pairs series A and B
[8] = Mycobacterium tuberculosis, H37RA; read-out: Antimycobacterial Activity MIC Mtb H37Ra
[9] = Mycolicibacterium aurum; read-out: Antimycobacterial Activity MIC M. aurum
[10] = Mycolicibacterium smegmatis; read-out: Antimycobacterial Activity MIC M. smeg.
[11] = Mycobacterium avium, read-out: Antimycobacterial Activity MIC M. avium

Question: Which results are given for `COc1cccc(Cn2c(C)nc3cc(Cl)ccc3c2=O)c1` [Compound 16]?
Answer: Antimycobacterial Activity MIC Mtb H37Ra (Mtb H37Ra): 62.5 µg/mL; MIC (Mtb H37Ra; [1]): 62.5 µg/mL (≈ 199 µM); Antimycobacterial Activity MIC M. aurum (M. aurum): ≥125 µg/mL; MIC (M. aurum; [2]): ≥ 125 µg/mL; Antimycobacterial Activity MIC M. smeg. (M. smegmatis): ≥125 µg/mL; MIC (M. smegmatis; [3]): ≥ 125 µg/mL; MIC (Mtb H37Rv; [4]): > 100 µg/mL; MIC (Mtb H37Rv; [5]): > 100 µg/mL; MIC (M. kansasii): > 100 µg/mL; MIC (M. avium; [6]): ≥ 500 µg/mL; Antimycobacterial Activity MIC M. avium (M. avium; [7]): ≥ 500 µg/mL

Question: Which MIC (Mtb H37Ra; [8]) does the source give for `Cc1nc2cc(Cl)ccc2c(=O)n1Cc1ccccc1F` [Compound 18] here?
Answer: ≥ 500 µg/mL

Question: And the MIC (M. aurum; [9])?
Answer: ≥ 500 µg/mL

Question: What about the MIC (M. smegmatis; [10]) of the same compound?
Answer: ≥ 500 µg/mL

Question: And the MIC (Mtb H37Rv; [4])?
Answer: > 100 µg/mL

Question: What about the MIC (M. kansasii) of the same compound?
Answer: > 100 µg/mL

Question: What about the MIC (M. avium; [6]) of the same compound?
Answer: ≥ 500 µg/mL

Question: For `Cc1ccccc1Cn1c(C)nc2cc(Cl)ccc2c1=O` [Compound 20], which “Antimycobacterial Activity MIC Mtb H37Ra” value (Mtb H37Ra) is on record?
Answer: ≥250 µg/mL

Question: What about the MIC (Mtb H37Ra; [1]) of the same compound?
Answer: ≥ 250 µg/mL

Question: What about the MIC (M. aurum; [9]) of the same compound?
Answer: ≥ 250 µg/mL

Question: What about the “Antimycobacterial Activity MIC M. aurum” value (M. aurum; [7]) of the same compound?
Answer: ≥ 250 µg/mL

Question: And the MIC (M. smegmatis; [10])?
Answer: ≥ 250 µg/mL

Question: What about the “Antimycobacterial Activity MIC M. smeg.” value (M. smegmatis; [7]) of the same compound?
Answer: ≥ 250 µg/mL

Question: What about the MIC (Mtb H37Rv; [4]) of the same compound?
Answer: > 100 µg/mL

Question: What about the MIC (Mtb H37Rv; [5]) of the same compound?
Answer: > 100 µg/mL

Question: And the MIC (M. kansasii)?
Answer: > 100 µg/mL

Question: And the MIC (M. avium; [6])?
Answer: ≥ 250 µg/mL

Question: And the “Antimycobacterial Activity MIC M. avium” value (M. avium; [7])?
Answer: ≥ 250 µg/mL

Question: With `Cc1nc2cc(Cl)ccc2c(=O)n1Cc1ccc(C(F)(F)F)cc1` [Compound 22] as the compound, how does the “Antimycobacterial Activity MIC Mtb H37Ra” value (Mtb H37Ra) read?
Answer: 31.25 µg/mL

Question: What about the MIC (Mtb H37Ra; [1]) of the same compound?
Answer: 31.2 µg/mL (≈ 88.6 µM)

Question: What about the MIC (M. aurum; [9]) of the same compound?
Answer: ≥ 500 µg/mL

Question: What about the “Antimycobacterial Activity MIC M. aurum” value (M. aurum; [7]) of the same compound?
Answer: ≥ 500 µg/mL

Question: And the MIC (M. smegmatis; [10])?
Answer: ≥ 500 µg/mL

Question: And the “Antimycobacterial Activity MIC M. smeg.” value (M. smegmatis; [7])?
Answer: ≥ 500 µg/mL

Question: What about the MIC (Mtb H37Rv; [4]) of the same compound?
Answer: > 100 µg/mL

Question: And the MIC (Mtb H37Rv; [5])?
Answer: > 100 µg/mL

Question: What about the MIC (M. kansasii) of the same compound?
Answer: 25 µg/mL (≈ 70.9 µM)

Question: And the “Antimycobacterial Activity MIC M. kans.” value (M. kansasii; [7])?
Answer: 25 µg/mL

Question: And the MIC (M. avium; [6])?
Answer: ≥ 500 µg/mL

Question: And the “Antimycobacterial Activity MIC M. avium” value (M. avium; [7])?
Answer: ≥ 500 µg/mL

Question: `Cc1nc2cc(Cl)ccc2c(=O)n1Cc1ccc2ccccc2c1` [Compound 23] was tested. Which “Antimycobacterial Activity MIC Mtb H37Ra” value (Mtb H37Ra) did it give?
Answer: ≥125 µg/mL

Question: And the MIC (Mtb H37Ra; [1])?
Answer: ≥ 125 µg/mL

Question: What about the “Antimycobacterial Activity MIC M. aurum” value (M. aurum) of the same compound?
Answer: ≥125 µg/mL

Question: What about the MIC (M. aurum; [2]) of the same compound?
Answer: ≥ 125 µg/mL

Question: And the “Antimycobacterial Activity MIC M. smeg.” value (M. smegmatis)?
Answer: ≥125 µg/mL

Question: And the MIC (M. smegmatis; [3])?
Answer: ≥ 125 µg/mL

Question: And the MIC (Mtb H37Rv; [4])?
Answer: > 100 µg/mL

Question: And the MIC (Mtb H37Rv; [5])?
Answer: > 100 µg/mL

Question: What about the MIC (M. kansasii) of the same compound?
Answer: > 100 µg/mL

Question: And the “Antimycobacterial Activity MIC M. avium” value (M. avium)?
Answer: ≥125 µg/mL

Question: And the MIC (M. avium; [11])?
Answer: ≥ 125 µg/mL

Question: Which results are given for `Cc1nc2cc(Cl)ccc2c(=O)n1/N=C/c1ccccc1[N+](=O)[O-]` [Compound 26]?
Answer: MIC (Mtb H37Ra; [8]): ≥ 62.5 µg/mL; MIC (M. aurum; [2]): ≥ 62.5 µg/mL; MIC (M. smegmatis; [3]): ≥ 62.5 µg/mL; MIC (Mtb H37Rv; [4]): > 25 µg/mL; MIC (M. kansasii): > 25 µg/mL; MIC (M. avium; [11]): ≥ 62.5 µg/mL

Question: `Cc1nc2cc(Cl)ccc2c(=O)n1/N=C/c1cccc([N+](=O)[O-])c1` [Compound 27] was tested. Which MIC (Mtb H37Ra; [8]) did it give?
Answer: ≥ 62.5 µg/mL

Question: And the MIC (M. aurum; [2])?
Answer: ≥ 62.5 µg/mL

Question: And the MIC (M. smegmatis; [3])?
Answer: ≥ 62.5 µg/mL

Question: What about the MIC (Mtb H37Rv; [4]) of the same compound?
Answer: > 50 µg/mL

Question: And the MIC (M. kansasii)?
Answer: > 50 µg/mL

Question: And the MIC (M. avium; [11])?
Answer: ≥ 62.5 µg/mL

Question: How did the MIC (Mtb H37Ra; [8]) turn out when `Cc1nc2cc(Cl)ccc2c(=O)n1/N=C/c1ccc([N+](=O)[O-])cc1` [Compound 28] was run?
Answer: ≥ 31.2 µg/mL

Question: What about the MIC (M. aurum; [2]) of the same compound?
Answer: ≥ 31.2 µg/mL

Question: And the MIC (M. smegmatis; [3])?
Answer: ≥ 31.2 µg/mL

Question: What about the MIC (Mtb H37Rv; [4]) of the same compound?
Answer: > 25 µg/mL

Question: And the MIC (M. kansasii)?
Answer: > 25 µg/mL

Question: What about the MIC (M. avium; [11]) of the same compound?
Answer: ≥ 31.2 µg/mL

Question: Which MIC (Mtb H37Ra; [8]) does the source give for `Cc1nc2cc(Cl)ccc2c(=O)n1/N=C/c1ccccn1` [Compound 29] here?
Answer: ≥ 31.2 µg/mL

Question: What about the MIC (M. aurum; [2]) of the same compound?
Answer: ≥ 31.2 µg/mL

Question: What about the MIC (M. smegmatis; [3]) of the same compound?
Answer: ≥ 31.2 µg/mL

Question: What about the MIC (Mtb H37Rv; [4]) of the same compound?
Answer: > 25 µg/mL

Question: And the MIC (M. kansasii)?
Answer: > 25 µg/mL

Question: And the MIC (M. avium; [11])?
Answer: ≥ 31.2 µg/mL

Question: What does the source list for `Cc1nc2cc(Cl)ccc2c(=O)n1/N=C/c1cccnc1` [Compound 30]?
Answer: MIC (Mtb H37Ra; [8]): ≥ 31.2 µg/mL; MIC (M. aurum; [2]): ≥ 31.2 µg/mL; MIC (M. smegmatis; [3]): ≥ 31.2 µg/mL; MIC (Mtb H37Rv; [4]): > 25 µg/mL; MIC (M. kansasii): > 25 µg/mL; MIC (M. avium; [11]): ≥ 31.2 µg/mL

Question: For `Cc1nc2cc(Cl)ccc2c(=O)n1/N=C/c1ccncc1` [Compound 31], which MIC (Mtb H37Ra; [8]) is on record?
Answer: ≥ 31.2 µg/mL

Question: What about the MIC (M. aurum; [2]) of the same compound?
Answer: ≥ 31.2 µg/mL

Question: And the MIC (M. smegmatis; [3])?
Answer: ≥ 31.2 µg/mL

Question: What about the MIC (Mtb H37Rv; [4]) of the same compound?
Answer: > 25 µg/mL

Question: And the MIC (M. kansasii)?
Answer: > 25 µg/mL

Question: And the MIC (M. avium; [11])?
Answer: ≥ 31.2 µg/mL

Question: `Cc1nc2cc(Cl)ccc2c(=O)n1/N=C/c1ccc(O)cc1O` [Compound 33] was tested. Which MIC (Mtb H37Ra; [8]) did it give?
Answer: ≥ 62.5 µg/mL

Question: What about the MIC (M. aurum; [2]) of the same compound?
Answer: ≥ 62.5 µg/mL

Question: And the MIC (M. smegmatis; [3])?
Answer: ≥ 62.5 µg/mL

Question: What about the MIC (Mtb H37Rv; [4]) of the same compound?
Answer: > 100 µg/mL

Question: What about the MIC (M. kansasii) of the same compound?
Answer: > 100 µg/mL

Question: And the MIC (M. avium; [11])?
Answer: ≥ 62.5 µg/mL

Question: `CO[C@H]1/C=C/O[C@@]2(C)Oc3c(C)c(O)c4c(O)c(c(/C=N/N5CCN(C)CC5)c(O)c4c3C2=O)NC(=O)/C(C)=C\C=C\[C@H](C)[C@H](O)[C@@H](C)[C@@H](O)[C@@H](C)[C@H](OC(C)=O)[C@@H]1C` [RIF, rifampicin] was tested. Which MIC (Mtb H37Ra; Mycobacterium tuberculosis, H37RA; internal quality controls (standards); read-out: MINIMUM INHIBITORY CONCENTRATION Mycobacterium tuberculosis H37Ra) did it give?
Answer: 0.00156 to 0.0031 µg/mL (≈ 0.0019 to 0.00377 µM)

Question: And the MIC (Mtb H37Ra; [8])?
Answer: 0.00156 µg/mL (≈ 0.0019 µM)

Question: And the MIC (M. aurum; Mycolicibacterium aurum, DSM43999; internal quality controls (standards); read-out: MINIMUM INHIBITORY CONCENTRATION Mycolicibacterium aurum DSM 43999)?
Answer: 0.39 to 0.78 µg/mL (≈ 0.474 to 0.948 µM)

Question: And the MIC (M. aurum; [9])?
Answer: 0.39 µg/mL (≈ 0.474 µM)

Question: And the MIC (M. smegmatis; Mycolicibacterium smegmatis, DSM43465; internal quality controls (standards); read-out: MINIMUM INHIBITORY CONCENTRATION Mycolicibacterium smegmatis DSM 43465)?
Answer: 12.5 to 25 µg/mL (≈ 15.2 to 30.4 µM)

Question: And the MIC (M. smegmatis; [10])?
Answer: 12.5 µg/mL (≈ 15.2 µM)

Question: What about the MIC (M. kansasii) of the same compound?
Answer: 0.025 µg/mL (≈ 0.0304 µM)

Question: And the MIC (M. avium; Mycobacterium avium, DSM44156; internal quality controls (standards); read-out: MINIMUM INHIBITORY CONCENTRATION Mycobacterium avium DSM 44156)?
Answer: 0.0625 to 0.125 µg/mL (≈ 0.0759 to 0.152 µM)

Question: And the MIC (M. avium; [6])?
Answer: 0.125 µg/mL (≈ 0.152 µM)
